Several values for one entry are separate records, joined by “and”; a condition that tells them apart may be missing. Equal values may be shown once.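 Exposure lasted 48 hours, with cells grown in 96-well plates and compounds tested at five concentrations. GI50 marks 50% less growth. TGI denotes the concentration required for complete inhibition of growth.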 Where a SMILES comes first, the peptide text is derived from it. [ ]: non-standard residue; d: D form. The star is where a group is joined. ξ: configuration not given here. NMeY = CN[C@@H](Cc1ccc(O)cc1)C(=O)O; Cbz = O=C(OCc1ccccc1)*; ξA = CC(N)C(=O)O
Experiments:
Assay in all cases: inhibition of tumour cell growth, NCI panel, 48 h
[1] = tested on: SW-620 colon
[2] = tested on: SK-MEL-2 melanoma
[3] = tested on: NCI-H23 lung
[4] = tested on: MOLT-4 leukemia
[5] = tested on: SF-539 CNS
[6] = tested on: KM12 colon
[7] = tested on: LOX IMVI melanoma
[8] = tested on: HL-60(TB) leukemia
[9] = tested on: RXF 393 renal
[10] = tested on: CAKI-1 renal
[11] = tested on: A498 renal

SMILES	TGI [1]	TGI [2]	TGI [3]	TGI [4]	TGI [5]	TGI [6]	TGI [7]	TGI [8] [µM]	TGI [9]	TGI [10] [µM]	TGI [11]	GI50 [1] [µM]	GI50 [2] [nM]	GI50 [4] [µM]	GI50 [5] [µM]	GI50 [6] [µM]	GI50 [7] [µM]	GI50 [9] [µM]	GI50 [11] [µM]
COc1ccc2nc3ccc(OC)cc3c(S(=O)Cc3ccccc3)c2c1 (configuration not stated)	> 32.1 µM	33 µM	37.5 µM	> 23.6 µM	27.2 µM	40.5 µM	6.66 µM	35.9	> 43.5 µM	25.6	38.9 µM								
CC1(C=O)CC(CCc2ccccc2)NC1Cc1ccc(O)cc1 (configuration not stated)	62.3 µM	29 µM	43.5 µM	38.2 µM	29.4 µM	37.5 µM	35 µM	31.8	31 µM	29.3	27.9 µM								
COC(=O)CN1Cc2cc(C)cc(c2O)CN(CC(=O)OC)Cc2cc(C)cc(c2O)CN(CC(=O)OC)Cc2cc(C)cc(c2O)CN(CC(=O)OC)Cc2cc(C)cc(c2O)C1	50 µM and > 100 µM	50 µM and 31.3 µM	50 µM and > 100 µM	50 µM and > 100 µM	50 µM and > 100 µM	50 µM and > 100 µM	50 µM and > 100 µM	16	28.6 µM and > 100 µM	50	50 µM and > 100 µM	18	2360	39.8	37.3	50.2	8.68	36.1	> 100
Nc1ncnc2c1ccn2CC#CCO	> 100 µM	> 100 µM	> 100 µM	> 100 µM	> 100 µM	> 100 µM	> 100 µM	> 100	> 100 µM	> 100	> 100 µM								
COc1ccc(COCC[C@H](C)OC2OC(CO[Si](C)(C)C(C)(C)C)C(O)C(O)C2O)cc1 (some centres not stated)	> 100 µM	> 100 µM	> 100 µM	> 100 µM	> 100 µM	> 100 µM	> 100 µM	> 100	> 100 µM	> 100	> 100 µM								
COc1ccc(C[C@@H](C(=O)N[C@@H](C)C(N)=O)N(C)C(=O)[C@@H]2CCCN2C(=O)[C@H](CC(C)C)NC(=O)C(C)NC(=O)OCc2ccccc2)cc1 (some centres not stated) (Cbz-[ξA]LP[NMeY](Me)A-NH2)	> 100 µM	> 100 µM	> 100 µM	> 100 µM	> 100 µM	> 100 µM	> 100 µM	> 100	> 100 µM	> 100	> 100 µM								
O=C1c2ccccc2C(=O)c2c1oc1cc(O)c(Cl)cc21	24.9 µM	7.16 µM	3.27 µM	> 62.5 µM	16.1 µM	19.4 µM	7.88 µM	32.9	24.5 µM	32.5	34 µM								
Nc1c(F)c(F)c2c(c1F)N(CCCCCl)c1ccccc1S2	> 100 µM	> 100 µM	> 100 µM	> 100 µM	> 100 µM	> 100 µM	> 100 µM	> 100	> 100 µM	> 100	> 100 µM								
COc1ccccc1/C=C1\CCC(Cc2ccccc2)(CN(C)C)C1=O (configuration not stated)	35.2 µM	34.8 µM	> 100 µM	38.9 µM	5.89 µM	15.9 µM	29.4 µM	15.1	51 µM	51.8	27.6 µM								
CCCCC/C=C\C=C\CCCCCCCCC(=O)OC	> 100 µM	> 100 µM	> 100 µM	> 100 µM	> 100 µM	> 100 µM	87.9 µM	> 100	> 100 µM	> 100	> 100 µM								
Cc1ccc(NC(=O)c2cccc(OP(=O)(Nc3ccc(C)cc3)Nc3ccc(C)cc3)c2)cc1	> 100 µM	> 100 µM	> 100 µM	6.37 µM	> 100 µM	> 100 µM	> 100 µM	> 100	6.75 µM	> 100	62.3 µM								
CO[P@@]1(=O)O[C@@H](c2ccccc2)[C@H](O)[C@@]1(O)c1ccccc1	> 100 µM	> 100 µM	> 100 µM	> 100 µM	> 100 µM	> 100 µM	> 100 µM	> 100	> 100 µM	> 100	> 100 µM								
CC1(C)CC(=O)c2c(-c3ccc(Cl)cc3)c(C#N)c(=S)n(C3OC(CO)C(O)C(O)C3O)c2C1 (configuration not stated)	> 100 µM	43.9 µM	> 100 µM	> 100 µM	> 100 µM	> 100 µM	49.4 µM	> 100	> 100 µM	> 100	> 100 µM								
O=c1[nH][nH]c(=O)n1Cc1ccccc1	> 100 µM	> 100 µM	> 100 µM	> 100 µM	> 100 µM	> 100 µM	> 100 µM	> 100	> 100 µM	> 100	> 100 µM								
O=c1cccccc1[O-].O=c1cccccc1[O-].O=c1cccccc1[O-].[Nd+3]	> 100 µM	97.3 µM	> 100 µM	> 100 µM	74.9 µM	> 100 µM	> 100 µM	> 100	50.2 µM	> 100	> 100 µM				19.7				81.4
CC/C(Cl)=N\OC(=O)Nc1ccc(F)c(Cl)c1	6.92 µM	33.5 µM	45.7 µM	2.11 µM	37.3 µM	35 µM	9.68 µM	4.33	34.5 µM	9.55	30.8 µM								
CCOC(=O)c1ccc(N=C2Sc3nc4ccccc4n3C2=Nc2ccc(C(=O)OCC)cc2)cc1	> 100 µM	91.5 µM	83.8 µM	> 100 µM	41.6 µM	> 100 µM	81.8 µM	> 100	59.3 µM	70.6	81.4 µM								

From PubChem BioAssay (NCI)
